Among the data in PMC6212553, “Baicalein Enhances the Oral Bioavailability and Hepatoprotective Effects of Silybin Through the Inhibition of Efflux Transporters BCRP and MRP2” (Frontiers in Pharmacology, 2018) are stability in plasma values, retold here.

The nature of the series: Stability of SBA and SBB in plasma QC samples. The conditions noted are these: three freeze–thaws, long-term, short-term, post-preparative. It is filed as in vitro ADME, rat. The protocol:
Next, we wanted to investigate the effect of baicalein on the PKs of silybin in vivo. A validated analytical method for the determination of silybin and its total conjugates in rat plasma by LC-MS was developed based on a previous report with minor modifications ([Yuan et al., 2017]). […] The results of precision and accuracy for intra- and inter-day evaluation are presented in Supplementary Table S2. The lower limit of quantification (LLOQ) was 5 ng/ml with relative standard deviation (RSD) ≤6.4%. The RSD values of quality control (QC) samples examined for precision were within 6.4%, while the accuracy ranged from 91.7 to 109.5%. It can be seen from Supplementary Table S2 that the extraction recoveries of silybin A and B were above 84.4% in plasma. Stability of SBA and SBB in plasma was also tested using QC samples at four different concentrations in the stability tests of three freeze–thaws, long-term, short-term, and post-preparative.
S. Table 1.Calibration curves for determination of S Ba, and S Bb in plasm a samples.
Cpd. Standard curv es R2 R ange
S. Table 2.P recision,accurac y and recover y for determination of S Ba, and S Bb in […]
S. Table 3. Stabilit y t esting results for determination of SBa, and S Bb in plasma […]
Initial a Freeze- thaw b Short-t e r m b Long- t e r m b Post-Prep. b […]
a. Contents of silybin and tangeretin in the freshly prepared QC samples. b. […]

As for `COc1cc([C@H]2Oc3cc([C@H]4Oc5cc(O)cc(O)c5C(=O)[C@@H]4O)ccc3O[C@@H]2CO)ccc1O` [silybin A], the stability in plasma entry is reported as “without significant loss”.

As for `COc1cc([C@@H]2Oc3cc([C@H]4Oc5cc(O)cc(O)c5C(=O)[C@@H]4O)ccc3O[C@H]2CO)ccc1O` [silybin B], the stability in plasma result is recorded as “without significant loss”.
